Our source for the EC50 values is patent US20240368096A1 (Enanta Pharmaceuticals, Inc., priority 2022, published 2024).

The test system of the assay is HBV. The assay can be described thus: HBV infection in HepG2-NTCP cells (HBeAg AlphaLISA in supernatants). It counts as cell-based. The conditions noted are these: Hepatitis B virus, 192 h; HBV infection of HepG2-NTCP cells; HBeAg in supernatants at day 8 post infection; read-out: Cellular EC50. A digest of the protocol: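 HepG2-NTCP A3 cells were pre-incubated 2 h with 3-fold serially diluted compounds, then infected with HBV at 2000 GE/cell with 4% PEG (0.5% DMSO final). After washing on day 1, cells stayed in 2.5% DMSO medium; supernatant HBeAg measured by AlphaLISA on day 8, EC50 versus DMSO controls.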

For `COCCOCCOc1cc2c(cc1-c1cc(F)c(C(=O)O)s1)S(=O)(=O)N(C)[C@H](C1CCCCC1)CN2c1ccccc1` [Example 498], the EC50 was under 100 nM.

For the molecule `CN1[C@H](C2CCCCC2)CN(c2ccc(OC(F)(F)F)cc2)c2cc(Cl)c(-c3ccc(F)c(C(=O)O)c3)cc2S1(=O)=O` [Example 292], the EC50 was under 100 nM.

`CN1[C@H](C2CCCCC2)CN(c2ccccc2)c2cc(C3CCNCC3)c(-c3ccc(F)c(C(=O)O)c3)cc2S1(=O)=O` [Example 596]: the EC50 is over 1000 nM.

For the molecule `COC1CCN(c2cc3c(cc2-c2ccc(F)c(C(=O)O)c2)S(=O)(=O)N(C)[C@H](C2CCCCC2)CN3c2ccccc2)CC1` [Example 534], the EC50 lay within 100 to 1000 nM.

On to `CO[C@H]1C[C@H](N2C[C@@H](CC(C)C)N(C)S(=O)(=O)c3cc(-c4ccc(F)c(C(=O)O)c4)c(Oc4ccccc4F)cc32)C1` [Example 472], for which the EC50 fell in the range of 100 to 1000 nM.

For `CN1[C@H](C2CCCCC2)CN(c2ccccc2)c2cc(OC3CC4(CCOCC4)C3)c(-c3ccc(F)c(C(=O)O)c3)cc2S1(=O)=O` [Example 383], the EC50 was in the range of 100 to 1000 nM.

Turning to `CC(C)CC1CN(c2ccccc2)c2cc(Cl)c(-c3ccc(Cl)c(C(=O)O)c3)cc2S(=O)(=O)N1C` (stereo not drawn) [Example 38], the EC50 was under 100 nM.

As for `CN1[C@H](C2CCCCC2)CN(c2ccccc2)c2cc(Cl)c(-c3cc(C(=O)O)ccn3)cc2S1(=O)=O` [Example 139, (R)-2-(7-chloro-3-cyclohexyl-2-methyl-1,1-dioxido-5-phenyl-2,3,4,5-tetrahydrobenzo[f][1,2,5]thiadiazepin-8-yl)isonicotinic acid], the EC50 was in the range of 100 to 1000 nM.

`CC(C)C[C@@H]1CN(c2ccccc2)c2cc(Cl)c(-c3cccc(C(=O)C(=O)O)c3)cc2S(=O)(=O)N1C` [Example 205, (R)-2-(3-(7-chloro-3-isobutyl-2-methyl-1,1-dioxido-5-phenyl-2,3,4,5-tetrahydrobenzo[f][1,2,5]thiadiazepin-8-yl)phenyl)-2-oxoacetic acid]: the half-maximal effective concentration (EC50) was under 100 nM.

Turning to `CC(C)C[C@@H]1CN(c2ccccc2)c2cc(Cl)c(-c3ccc(-c4ccccc4)c(C(=O)O)c3)cc2S(=O)(=O)N1C` [Example 215, (R)-4-(7-chloro-3-isobutyl-2-methyl-1,1-dioxido-5-phenyl-2,3,4,5-tetrahydrobenzo[f][1,2,5]thiadiazepin-8-yl)-[1,1′-biphenyl]-2-carboxylic acid], the EC50 was in the range of 100 to 1000 nM.

Take `CN1[C@H](C2CCCCC2)CN(c2ccccc2)c2cc(OCc3ccc(OC(F)(F)F)cc3)c(-c3cc(F)c(C(=O)O)s3)cc2S1(=O)=O` [Example 507]: the EC50 is under 100 nM.

Consider `Cc1sc(-c2cc3c(cc2Cl)N(c2ccccc2)C[C@@H](C2CCCCC2)N(C)S3(=O)=O)nc1C(=O)O` [Example 125], for which the EC50 was 100 to 1000 nM.

For `CN1[C@H](C2CCC2)CN(c2ccccc2)c2cc(Cl)c(-c3cc(F)c(C(=O)O)s3)cc2S1(=O)=O` [Example 121], the concentration giving a half-maximal response (EC50) is under 100 nM.

As for `CC(C)C[C@@H]1CN(c2ccccc2)c2cc(OCCN(C)C)c(-c3ccc(F)c(C(=O)O)c3)cc2S(=O)(=O)N1C` [Example 451], the EC50 was over 1000 nM.

Turning to `CCCC[C@H]1CN(c2ccccc2)c2cc(N3CCCCC3)c(-c3cccc(C(=O)O)c3)cc2S(=O)(=O)N1C` [Example 540], the EC50 is over 1000 nM.

Turning to `COc1cc2c(cc1-c1cccc(C(=O)O)c1)S(=O)(=O)N(C)[C@@H](Cc1ccc(Cl)cc1)CN2c1ccccc1` [Example 17], the EC50 was over 1000 nM.

On to `CN1[C@H](COCc2ccccc2)CN(c2ccccc2)c2cc(Cl)c(-c3ccc(F)c(C(=O)O)c3)cc2S1(=O)=O` [Example 102], for which the EC50 is over 1000 nM.

As to `O=C(O)c1cncc(-c2cc3c(cc2F)N(c2ccccc2)CC2CC4(CC4)CN2S3(=O)=O)c1` (stereo not drawn) [Example 6], the EC50 was over 1000 nM.

As for `CC(C)C[C@@H]1CN(c2ccccc2)c2cc(OCc3cccnc3)c(-c3ccc(F)c(C(=O)O)c3)cc2S(=O)(=O)N1C` [Example 456], the 50% effective concentration (EC50) is 100 to 1000 nM.

For the molecule `CC(C)[C@@H]1CN(c2ccccc2)c2cc(Cl)c(-c3ccc(F)c(C(=O)O)c3)cc2S(=O)(=O)N1C` [Example 61, (R)-5-(7-chloro-3-isopropyl-2-methyl-1,1-dioxido-5-phenyl-2,3,4,5-tetrahydrobenzo[f][1,2,5]thiadiazepin-8-yl)-2-fluorobenzoic acid], the EC50 is 100 to 1000 nM.

Take `CO[C@H](C)COC(=O)Nc1cc(-c2cc3c(cc2Cl)N(c2ccccc2)C[C@@H](C2CCCCC2)N(C)S3(=O)=O)sc1C(=O)O` [Example 259]: the EC50 was under 100 nM.

For the molecule `COc1cc(-c2cc3c(cc2Cl)N(c2ccccc2)C[C@@H](C2CCCCC2)N(C)S3(=O)=O)cc(C(=O)O)c1NC(=O)OCC(C)C` [Example 278], the EC50 was under 100 nM.

As for `CN1[C@H](CC2CC2)CN(c2ccccc2)c2cc(Cl)c(-c3ccc(F)c(C(=O)O)c3)cc2S1(=O)=O` [Example 73], the EC50 was under 100 nM.

As to `CN1[C@H](C2CC=CCO2)CN(c2ccccc2)c2cc(Cl)c(-c3ccc(F)c(C(=O)O)c3)cc2S1(=O)=O` (single isomer, unassigned) [Example 103], the EC50 is 100 to 1000 nM.

Regarding `CCCC[C@H]1CN(c2ccccc2)c2cc(Nc3ccccc3F)c(-c3cccc(C(=O)O)c3)cc2S(=O)(=O)N1C` [Example 539], the EC50 is over 1000 nM.

Consider `CC(C)C[C@@H]1CN(c2ccccc2)c2cc(Cl)c(-c3ccc(N4CCCCC4)c(C(=O)O)c3)cc2S(=O)(=O)N1C` [Example 219, (R)-5-(7-chloro-3-isobutyl-2-methyl-1,1-dioxido-5-phenyl-2,3,4,5-tetrahydrobenzo[f][1,2,5]thiadiazepin-8-yl)-2-(piperidin-1-yl)benzoic acid], for which the EC50 is over 1000 nM.

Take `CCCCC[C@@H]1CN(c2ccccc2)c2cc(Cl)c(-c3ccc(F)c(C(=O)O)c3)cc2S(=O)(=O)N1C` [Example 70]: the EC50 is over 1000 nM.

In the case of `CC(C)C[C@@H]1CN(C2CC2)c2cc(Oc3ccccc3F)c(-c3ccc(F)c(C(=O)O)c3)cc2S(=O)(=O)N1C` [Example 471], the EC50 lay within 100 to 1000 nM.

On to `COc1c(F)cccc1Oc1cc2c(cc1-c1ccc(F)c(C(=O)O)c1)S(=O)(=O)N(C)[C@H](C1CCCCC1)CN2c1ccccc1` [Example 407], for which the EC50 is under 100 nM.

As for `CC(C)CC1CN(c2ccccc2)c2cc(N3CCCCC3)c(-c3cccc(C(=O)O)c3)cc2S(=O)(=O)N1C` (stereo not drawn) [Example 545], the EC50 is under 100 nM.

As to `CC(C)COc1cc2c(cc1-c1ccc(F)c(C(=O)O)c1)S(=O)(=O)N(C)[C@H](C1CCCCC1)CN2c1ccccc1` [Example 358], the EC50 is under 100 nM.

Regarding `CCCCCOc1cc2c(cc1-c1ccc(F)c(C(=O)O)c1)S(=O)(=O)N(C)[C@H](C1CCCCC1)CN2c1ccccc1` [Example 351], the EC50 is under 100 nM.

As for `CC(C)C[C@@H]1CN(c2ccccc2)c2cc(Cl)c(-c3cccc(S(N)(=O)=O)c3)cc2S(=O)(=O)N1C` [Example 168], the EC50 is over 1000 nM.

Turning to `CN1[C@H](C2CCCCC2)CN(c2ccccc2)c2cc(OCc3nccs3)c(-c3ccc(F)c(C(=O)O)c3)cc2S1(=O)=O` [Example 340], the EC50 is under 100 nM.

Consider `CC(C)C[C@@H]1CN(c2ccccc2)c2cc(Cl)c(-c3ccc(C#N)c(C(=O)O)c3)cc2S(=O)(=O)N1C` [Example 187], for which the EC50 fell in the range of 100 to 1000 nM.

With `CN1[C@H](C2CCCCC2)CNc2cc(-c3ccncc3)c(-c3ccc(F)c(C(=O)O)c3)cc2S1(=O)=O` [Example 570], the EC50 is over 1000 nM.

`CN1[C@H](C2CCCCC2)CNc2cc(C3CCC3)c(-c3ccc(F)c(C(=O)O)c3)cc2S1(=O)=O` [Example 586]: the EC50 was in the range of 100 to 1000 nM.

With `CC(C)C[C@@H]1CN(c2ccccc2)c2cc(N3CCc4ccccc43)c(-c3ccc(Cl)c(C(=O)O)c3)cc2S(=O)(=O)N1C` [Example 551], the EC50 lay within 100 to 1000 nM.

As for `CN1[C@H](C2CCCCC2)CN(c2ccccc2)c2cc(Cl)c(-c3cc(C(=O)O)c4ncccc4c3)cc2S1(=O)=O` [Example 210], the concentration for a half-maximal effect (EC50) lay in the range of 100 to 1000 nM.

Regarding `CN1C(CC2CCCC2)CN(c2ccccc2)c2cc(Cl)c(-c3ccc(F)c(C(=O)O)c3)cc2S1(=O)=O` (stereo not drawn) [Example 77], the concentration for a half-maximal effect (EC50) is 100 to 1000 nM.

As to `CC(C)C[C@@H]1CN(c2ccccc2)c2cc(Cl)c(-c3ccc4[nH]ncc4c3)cc2S(=O)(=O)N1C` [Example 181], the EC50 was over 1000 nM.

For the molecule `CN1[C@H](CN2CCOCC2)CN(c2ccccc2)c2cc(Cl)c(-c3ccc(F)c(C(=O)O)c3)cc2S1(=O)=O` [Example 109], the EC50 is over 1000 nM.

Consider `CO[C@H]1C[C@H](Oc2cc3c(cc2-c2ccc(F)c(C(=O)O)c2)S(=O)(=O)N(C)[C@H](C2CCCCC2)CN3c2ccccc2)C1` [Example 378], for which the EC50 was in the range of 100 to 1000 nM.

On to `CN1[C@H](C2CCCCC2)CN(c2cccc(OC(F)(F)F)c2)c2cc(Cl)c(-c3ccc(F)c(C(=O)O)c3)cc2S1(=O)=O` [Example 293], for which the EC50 was under 100 nM.

As to `CC(C)CC1CN(C2CC2)c2cc(Cl)c(-c3cccc(C(=O)O)c3)cc2S(=O)(=O)N1C` (stereo not drawn) [Example 327], the EC50 was in the range of 100 to 1000 nM.

`CC(C)C[C@@H]1CN(c2ccccc2)c2cc(Cl)c(-c3ccc(C(F)F)c(C(=O)O)c3)cc2S(=O)(=O)N1C` [Example 165]: the half-maximal effective concentration (EC50) lay within 100 to 1000 nM.

On to `CC(C)C[C@@H]1CN(c2ccccc2)c2cc(Cl)c(-c3ccc4oncc4c3)cc2S(=O)(=O)N1C` [Example 185], for which the EC50 was in the range of 100 to 1000 nM.

Consider `CN1[C@H](c2ccc(F)cc2)CN(c2ccccc2)c2cc(Cl)c(-c3ccc(F)c(C(=O)O)c3)cc2S1(=O)=O` [Example 56], for which the EC50 fell in the range of 100 to 1000 nM.

For the molecule `COC(C)(C)C#Cc1cc2c(cc1-c1ccc(F)c(C(=O)O)c1)S(=O)(=O)N(C)[C@H](C1CCCCC1)CN2c1ccccc1` [Example 604], the EC50 was under 100 nM.

For `CN1[C@H](C2CCC2)CN(c2ccccc2)c2cc(Cl)c(-c3cccc(S(N)(=O)=O)c3)cc2S1(=O)=O` [Example 178], the EC50 was over 1000 nM.

In the case of `CC(C)C[C@@H]1CN([C@@H]2CCOC2)c2cc(Oc3ccccc3F)c(-c3ccc(F)c(C(=O)O)c3)cc2S(=O)(=O)N1C` [Example 470], the half-maximal effective concentration (EC50) fell in the range of 100 to 1000 nM.
